Columns and labels:
clinical = settings: human, in vivo, po
Excerpt: We performed a study on 30 healthy volunteer subjects using a double-blind design. Subjects with ages between 18 and 55 years were recruited. Exclusion criteria were: the use of substances with activity in CYP3A4 (quinidines), inhibitors (erythromycin), inducers (carbamazepines); consumption of illegal drugs (cocaine, heroin, tetrahydrocannabinoids); cigarettes, oral contraceptives, pregnancy, nursing, renal or liver disease history, obesity (>30% above ideal weight), abnormal biochemistry (electrolytes, liver or renal function) or hematologic (full count of blood cells).
After medicament delivery in each group, blood samples were taken at 0.5, 1, 1.5, 2, 2.5, 3, 4, 6, 8, 24 y 32 hours.

human serum proteins = settings: cited from earlier work
[1] = human, in vivo, cited from earlier work
[2] = in vivo; cited from earlier work
CYP2D6 isoenzyme = CYP2D6 isoenzyme (Homo sapiens, UniProt P10635); settings: cited from earlier work; for activity over CYP2D6 isoenzyme compared with fluoxetine and its active metabolite: relative to fluoxetine and its active metabolite
[3] = system: serotonin reuptake process; settings: relative to Sertraline; cited from earlier work
[4] = cited from earlier work
[5] = metabolites of Alprazolam; cited from earlier work

Chain of CYP2D6 isoenzyme (P10635 whole entry): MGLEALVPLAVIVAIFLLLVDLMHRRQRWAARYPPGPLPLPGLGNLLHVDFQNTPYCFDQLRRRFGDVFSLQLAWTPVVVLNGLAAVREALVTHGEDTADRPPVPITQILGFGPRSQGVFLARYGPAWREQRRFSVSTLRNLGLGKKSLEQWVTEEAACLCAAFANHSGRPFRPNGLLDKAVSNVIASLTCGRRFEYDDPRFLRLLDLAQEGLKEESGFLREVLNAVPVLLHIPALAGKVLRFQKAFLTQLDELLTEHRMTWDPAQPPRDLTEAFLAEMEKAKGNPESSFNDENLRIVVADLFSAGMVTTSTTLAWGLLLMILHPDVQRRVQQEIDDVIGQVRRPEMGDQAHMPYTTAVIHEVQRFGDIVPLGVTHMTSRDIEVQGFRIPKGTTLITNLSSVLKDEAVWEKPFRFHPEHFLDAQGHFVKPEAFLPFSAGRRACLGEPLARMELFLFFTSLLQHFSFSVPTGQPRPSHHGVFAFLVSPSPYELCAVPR

Cc1nnc2n1-c1ccc(Cl)cc1C(c1ccccc1)=NC2 [Alprazolam]
AUC(0-inf) (clinical): 167 ± 53.1 ng·h/mL | Cmax (clinical): 12.6 ± 7.5 ng/mL | Tmax (clinical): 2.6 ± 1.4 h | attached to human serum proteins (human serum proteins): 80% | time to maximum plasma concentrations ([1]; po): 1 to 2 h | Plasma clearance half-life, range [1]: 6.3 to 26.9 h | concentrations in steady state related with toxicity [2]: higher than 60 ng/mL | t1/2 (Clearance half-life) (human, in vivo, po): 11.3 ± 2.2 h

N[C@H]1CC[C@@H](c2ccc(Cl)c(Cl)c2)c2ccccc21 [DemethylSertraline]
activity over CYP2D6 isoenzyme compared with fluoxetine and its active metabolite (CYP2D6 isoenzyme): five to ten times lower | activity over serotonin reuptake process compared with unaltered drug [3]: eight times lower

CN[C@H]1CC[C@@H](c2ccc(Cl)c(Cl)c2)c2ccccc21 [Sertraline]
variation coefficient of plasma concentrations ([4]; after delivering fixed doses): 38% | dose recovered in urine and feces ([4]; oral administration, after seven days, 10080 min): 88% | Plasma half-life ([4]; plasma): 22 to 30 h | in vitro inhibition of CYP2D6 isoenzyme (CYP2D6 isoenzyme; in vitro): weak in vitro inhibition | activity over CYP2D6 isoenzyme compared with fluoxetine and its active metabolite (CYP2D6 isoenzyme): five to ten times lower | effect of Sertraline on Alprazolam kinetics (the two drugs administered in combination): does not significantly alter

OCc1nnc2n1-c1ccc(Cl)cc1C(c1ccccc1)=NC2 [alpha-hydroxy-Alprazolam]
biological activity compared with therapeutic activity of Alprazolam [5]: about one half

O=C(c1ccccc1)c1ccccc1 [benzophenone]
biological activity compared with therapeutic activity of Alprazolam [5]: essentially inactive
